Experimental findings from ChEMBL document CHEMBL1153252, “Anti-human immunodeficiency virus activity and cytotoxicity of derivatized buckminsterfullerenes” (Bioorg Med Chem Lett, 1996) are described below.

Some results are limits rather than exact numbers.

A short description of test [1]: Compound was evaluated for the anti-HIV-1 activity in human peripheral blood mononuclear cells infected with HIV-1LA1. It is filed as functional.
Test [2] in a line: Compound was evaluated for the toxicity in human PBM cells. It is filed as functional, cell-based.
A further test has as its system Vero. Description: Compound was evaluated for the toxicity in rapidly dividing Vero cells (African Green monkeys kidney cells). Conditions: Chlorocebus sabaeus. It is filed as functional, cell-based.

`COC1CC(=O)CC23C4=c5c6c7c8c9c%10c%11c%12c%13c%14c%15c%16c%17c%18c%19c%20c(c%21c%22c%23c(c5c5c6c6c8c%11c8c%11c%12c%12c%14c(c%15%19)c%14c%20c%22c%15c%19c%23c5c(c68)c%19c%11c%12c%14%15)C%2112)C%18C3C1(C4)C(OC)CC(=O)CC%171C(=C9C7)C%16C%10%13` (stereo in doubt) gave an EC50 in test [1] of 7.7 µM. For the same compound, the IC50 (in test [2]; in the test on Vero) was more than 100 µM throughout.

As for `CN1CC23C4=C5Cc6c7c5c5c8c9c%10c%11c%12c(c2c2c%13c%14c%15c%16c%17c%18c%19c%20c(c6c6c%20c%20c%18c%18c%21c%17c%14c%14c(c%12%13)c%11c%11c9c9c%12c8c7c6c%12c%20c%18c9c%11c%14%21)=C6CC3(C1)C(C2%15)C61CN(C)CC%16%191)C4C5%10` (centres undefined), in test [1] (Homo sapiens), the 50% effective concentration (EC50) turned out to be 72.7 µM. Also, the IC50 (in test [2]; in the test on Vero) was more than 100 µM in each case.

The compound `COC1C/C(=N\OCC(=O)O)CC23c4c5c6c7c8c9c(c%10c%11c2c2c4c4c%12c5c5c6c6c8c8c%13c9c9c%10c%10c%11c%11c2c2c4c4c%12c%12c5c5c6c8c6c8c%13c9c9c%10c%10c%11c2c2c4c4c%12c5c6c5c8c9c%10c2c45)C713` (centres undefined) came in with an EC50 in test [1] (Homo sapiens) of 0.9 µM. The IC50 (in test [2]; with Vero) was more than 100 µM each time.

In the case of `O=C(O)CCC(=O)OC1CCC23c4c5c6c7c8c9c%10c%11c%12c%13c%14c%15c%16c%17c%18c(c9c6c6c%18c9c%17c%17c%15c%15c%18c%14c%14c%12c%12c%11c8c(c8c%11c2c2c4c4c(c56)c9c5c4c4c2c2c%11c(c8%12)c%14c%18c2c4c%15c%175)C73C1)C%10C%13%16` (centres undefined), a half-maximal response in test [1] (Homo sapiens) (EC50) required 6.3 µM. The IC50 (in test [2]; in the test with Vero) was more than 100 µM in each case.

On to `O=C(CCCc1ccc(C2(c3ccccc3)C34c5c6c7c8c9c%10c(c%11c%12c3c3c5c5c%13c6c6c7c7c9c9c%14c%10c%10c%11c%11c%12c%12c3c3c5c5c%13c%13c6c6c7c9c7c9c%14c%10c%10c%11c%11c%12c3c3c5c5c%13c6c7c6c9c%10c%11c3c56)C824)cc1)NC(CO)(CO)CO` (centres undefined), for which, in test [1] (Homo sapiens), a half-maximal effect (EC50) was put at 2.5 µM. Moreover, the IC50 (in test [2]; in the test with Vero) was more than 100 µM throughout.

In the case of `COC1CC(=O)CC23C4=c5c6c7c8c9c%10c%11c%12c%13c%14c%15c%16c%17c%18c%19c%20c(c%21c%22c%23c(c5c5c6c6c8c%11c8c%11c%12c%12c%14c(c%15%19)c%14c%20c%22c%15c%19c%23c5c(c68)c%19c%11c%12c%14%15)C%2112)C%18C3C1(C4)C(OC)CC(=O)CC%171C(=C9C7)C%16C%10%13` (single isomer, unassigned; isomer A), the EC50 in test [1] is more than 100 µM.

For `Cc1cn([C@H]2C[C@H](N=[N+]=[N-])[C@@H](CO)O2)c(=O)[nH]c1=O` [ZIDOVUDINE], the EC50 in test [1] (Homo sapiens) is 0.004 µM. For the same compound, the IC50 in test [2] was more than 100 µM.

On to `OC1CCC23CC4=c5c6c7c8c9c%10c%11c%12c%13c%14c%15c%16c%17c(c-8c8c%18c%17c%17c(c%19c%20c%21c%22c%23c%24c%25c%26c%27c%28c(c5c(c6%10)c5c%28c%25c(c%13c%24c%14c%22c%16c%17%21)c%115)CC%27=C(C%20C%23%26)C%192C1)C%18C3C41CC(O)CCC871)C9%15%12` (centres undefined), for which a half-maximal response in test [1] (Homo sapiens) (EC50) required 17.6 µM. The IC50 (in test [2]; in the test with Vero) was more than 100 µM throughout.

In test [1] (Homo sapiens), `CC12CCC/C(=N\OCC(=O)O)C1C13c4c5c6c7c8c9c%10c%11c%12c%13c%14c%15c(c6c6c4c4c%16c%17c%18c(c%19c%20c1c5c8c1c%20c5c%19c8c%18c%18c%19c%17c%17c4c6c%15c4c%14c6c%12c%12c%14c%11c(c91)c5c%14c8c%18c%12c6c%19c4%17)C%1623)C7C%10%13` (centres undefined) had an EC50 of 21.7 µM. The IC50 (in test [2]; with Vero) was more than 100 µM throughout.

The compound `O=C(O)CCC(=O)NCCc1ccc(C2(c3ccc(CCNC(=O)CCC(=O)O)cc3)C34c5c6c7c8c9c5c5c%10c%11c%12c(c%13c%14c%15c%16c%17c%18c%19c%20c%21c%22c(c-%13c3c6c%22c3c7c6c7c%13c%22c%23c%24c(c9c5c5c%11c9c(c%15%12)c%16c%11c%18c(c%13c%19c7c%213)c%23c%11c9c%245)C86%22)C%14C%20%17)C%1024)cc1` (centres undefined) registered an EC50 in test [1] (Homo sapiens) of 7.3 µM. Moreover, the concentration for half-maximal inhibition (IC50) (in test [2]; with Vero) was more than 100 µM throughout.

In the case of `c1ccc(C2(c3ccc4c(c3)OCCOCCOCCOCCOCCO4)C34C5=C6C7=C8Cc9c%10c8c8c%11c%12c%13c%14c%15c(c6c6c%16c%17c(c%18c%19c3c(c3c9c9c%20c%10c%11c%10c%11c%12c%12c%14c(c%15%16)c%14c%17c%15c%18c%16c%19c3c9c3c%16c9c%15c%14c%12c%11c9c3c%20%10)C5)C642)C7C8%13)cc1` (centres undefined), in test [1] (Homo sapiens), a half-maximal effect (EC50) was put at 137 µM. The IC50 (in test [2]; with Vero) was more than 100 µM in each case.

With `O=C(O)CO/N=C1\C=CC23c4c5c6c7c8c9c%10c%11c%12c%13c%14c%15c%16c%17c%18c(c9c6c6c%18c9c%17c%17c%15c%15c%18c%14c%14c%12c%12c%11c8c(c8c%11c2c2c4c4c(c56)c9c5c4c4c2c2c%11c(c8%12)c%14c%18c2c4c%15c%175)C73C1)C%10C%13%16` (centres undefined), the EC50 in test [1] (Homo sapiens) came out at 7.3 µM. Further, the IC50 in test [2] is more than 100 µM; in the test on Vero, 33.9 µM.

In test [1] (Homo sapiens), `CC1C=CC(COC(=O)CCC(=O)O)C23c4c5c6c7c8c9c%10c%11c%12c%13c%14c%15c%16c%17c%18c(c9c6c6c%18c9c%17c%17c%15c%15c%18c%14c%14c%12c%12c%11c8c(c8c%11c2c2c4c4c(c56)c9c5c4c4c2c2c%11c(c8%12)c%14c%18c2c4c%15c%175)C713)C%10C%13%16` (centres undefined) came in with an EC50 of 2.2 µM. The IC50 (in test [2]; in the test with Vero) was more than 100 µM throughout.

`O=C(O)CO/N=C1\CCC23c4c5c6c7c8c9c%10c%11c%12c%13c%14c%15c%16c%17c%18c(c9c6c6c%18c9c%17c%17c%15c%15c%18c%14c%14c%12c%12c%11c8c(c8c%11c2c2c4c4c(c56)c9c5c4c4c2c2c%11c(c8%12)c%14c%18c2c4c%15c%175)C73C1)C%10C%13%16` (centres undefined) showed an EC50 in test [1] (Homo sapiens) of 2.9 µM. The IC50 (in test [2]; in the test with Vero) was more than 100 µM throughout.
